Measurements taken from ChEMBL document CHEMBL1926625, “Identification of benzoxazin-3-one derivatives as novel, potent, and selective nonsteroidal mineralocorticoid receptor antagonists” (J Med Chem, 2011).

Columns and labels:
Androgen receptor = target: T1, Androgen receptor (Homo sapiens, UniProt P10275); test: Displacement of [3H]testosterone from AR
T1 sequence (P10275 whole entry): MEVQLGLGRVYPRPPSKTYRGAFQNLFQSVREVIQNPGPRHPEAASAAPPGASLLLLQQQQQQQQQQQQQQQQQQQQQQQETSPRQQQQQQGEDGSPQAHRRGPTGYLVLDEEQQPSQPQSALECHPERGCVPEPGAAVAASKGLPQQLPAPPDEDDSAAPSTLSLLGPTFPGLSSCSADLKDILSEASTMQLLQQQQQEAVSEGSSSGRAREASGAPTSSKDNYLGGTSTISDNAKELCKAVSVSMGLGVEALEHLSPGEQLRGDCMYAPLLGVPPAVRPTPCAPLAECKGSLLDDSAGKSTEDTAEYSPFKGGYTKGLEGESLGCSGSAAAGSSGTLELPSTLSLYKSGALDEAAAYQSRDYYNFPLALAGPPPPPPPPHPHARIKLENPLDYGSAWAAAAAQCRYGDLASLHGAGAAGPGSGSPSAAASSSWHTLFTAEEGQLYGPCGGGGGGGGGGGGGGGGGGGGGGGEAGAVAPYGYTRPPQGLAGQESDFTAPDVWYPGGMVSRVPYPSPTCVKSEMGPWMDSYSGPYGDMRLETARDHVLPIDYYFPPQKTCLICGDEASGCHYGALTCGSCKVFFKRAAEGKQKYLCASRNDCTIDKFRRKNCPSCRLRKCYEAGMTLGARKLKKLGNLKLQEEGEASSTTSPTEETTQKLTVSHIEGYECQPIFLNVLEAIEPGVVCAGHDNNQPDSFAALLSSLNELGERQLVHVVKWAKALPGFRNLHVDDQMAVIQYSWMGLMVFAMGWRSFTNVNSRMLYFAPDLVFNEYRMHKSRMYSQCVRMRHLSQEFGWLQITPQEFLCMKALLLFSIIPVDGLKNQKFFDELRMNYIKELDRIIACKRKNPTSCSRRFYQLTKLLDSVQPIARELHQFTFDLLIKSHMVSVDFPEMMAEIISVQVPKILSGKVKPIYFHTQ

Progesterone receptor = target: T2, Progesterone receptor (Homo sapiens, UniProt P06401); test: Displacement of [3H]progesterone from PR
T2 sequence (P06401 whole entry): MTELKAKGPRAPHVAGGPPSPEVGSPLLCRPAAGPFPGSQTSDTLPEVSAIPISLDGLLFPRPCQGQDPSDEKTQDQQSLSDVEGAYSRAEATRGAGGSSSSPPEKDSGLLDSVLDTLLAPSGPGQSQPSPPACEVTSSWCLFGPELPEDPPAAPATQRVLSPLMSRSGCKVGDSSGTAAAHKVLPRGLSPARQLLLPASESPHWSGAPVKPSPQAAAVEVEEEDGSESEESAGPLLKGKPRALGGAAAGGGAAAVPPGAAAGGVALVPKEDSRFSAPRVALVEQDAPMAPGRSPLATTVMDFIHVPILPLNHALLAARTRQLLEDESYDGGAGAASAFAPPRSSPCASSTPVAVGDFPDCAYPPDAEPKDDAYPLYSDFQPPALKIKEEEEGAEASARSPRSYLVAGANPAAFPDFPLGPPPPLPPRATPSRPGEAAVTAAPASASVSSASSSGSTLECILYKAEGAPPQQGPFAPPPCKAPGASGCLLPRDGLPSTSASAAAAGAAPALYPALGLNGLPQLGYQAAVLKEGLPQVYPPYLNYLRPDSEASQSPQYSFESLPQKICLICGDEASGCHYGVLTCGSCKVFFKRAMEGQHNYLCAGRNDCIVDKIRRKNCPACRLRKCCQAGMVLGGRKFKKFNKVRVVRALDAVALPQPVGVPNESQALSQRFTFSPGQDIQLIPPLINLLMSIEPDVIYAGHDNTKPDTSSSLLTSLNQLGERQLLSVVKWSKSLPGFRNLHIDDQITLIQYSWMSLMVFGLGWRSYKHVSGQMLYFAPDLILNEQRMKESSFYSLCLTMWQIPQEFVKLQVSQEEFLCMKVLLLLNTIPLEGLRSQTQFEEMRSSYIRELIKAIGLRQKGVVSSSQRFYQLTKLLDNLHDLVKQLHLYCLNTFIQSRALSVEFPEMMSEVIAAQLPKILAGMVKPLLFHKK

[1] = target: T3, Mineralocorticoid receptor (Homo sapiens, UniProt P08235); test: biochemical
T3 sequence (P08235 whole entry): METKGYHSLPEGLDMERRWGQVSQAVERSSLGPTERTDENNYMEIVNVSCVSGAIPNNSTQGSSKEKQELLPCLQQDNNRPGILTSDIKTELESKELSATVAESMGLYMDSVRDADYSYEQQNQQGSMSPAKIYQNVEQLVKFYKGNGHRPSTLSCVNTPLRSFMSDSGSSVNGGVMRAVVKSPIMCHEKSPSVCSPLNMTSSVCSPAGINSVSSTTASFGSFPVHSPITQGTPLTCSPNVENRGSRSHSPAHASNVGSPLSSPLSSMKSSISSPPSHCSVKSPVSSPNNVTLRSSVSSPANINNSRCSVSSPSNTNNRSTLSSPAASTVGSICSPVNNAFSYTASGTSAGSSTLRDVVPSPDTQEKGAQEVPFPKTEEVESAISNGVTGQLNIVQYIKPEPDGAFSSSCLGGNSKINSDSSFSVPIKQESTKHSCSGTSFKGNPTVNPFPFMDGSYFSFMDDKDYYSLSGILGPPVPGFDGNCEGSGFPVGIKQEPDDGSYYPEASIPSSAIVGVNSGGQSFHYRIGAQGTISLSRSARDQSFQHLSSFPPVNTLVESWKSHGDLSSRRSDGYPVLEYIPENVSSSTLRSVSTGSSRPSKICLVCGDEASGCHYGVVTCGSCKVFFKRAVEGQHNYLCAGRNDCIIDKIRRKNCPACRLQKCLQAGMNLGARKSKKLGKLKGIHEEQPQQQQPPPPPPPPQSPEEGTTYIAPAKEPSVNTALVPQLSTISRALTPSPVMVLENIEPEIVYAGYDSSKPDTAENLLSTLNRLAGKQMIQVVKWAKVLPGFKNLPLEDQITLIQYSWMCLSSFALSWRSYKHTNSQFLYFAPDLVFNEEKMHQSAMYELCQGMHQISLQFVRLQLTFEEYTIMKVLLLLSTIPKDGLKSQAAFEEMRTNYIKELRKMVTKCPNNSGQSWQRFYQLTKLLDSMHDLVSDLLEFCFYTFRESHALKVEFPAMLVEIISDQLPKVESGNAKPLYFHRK
Description: Displacement of [3H]aldosterone from cytosolic human MR expressed in HEK293 cells after 16 hrs by scintillation counting

Glucocorticoid receptor = target: T4, Glucocorticoid receptor (Homo sapiens, UniProt P04150); test: Displacement of [3H]dexomethasone from GR
T4 sequence (P04150 whole entry): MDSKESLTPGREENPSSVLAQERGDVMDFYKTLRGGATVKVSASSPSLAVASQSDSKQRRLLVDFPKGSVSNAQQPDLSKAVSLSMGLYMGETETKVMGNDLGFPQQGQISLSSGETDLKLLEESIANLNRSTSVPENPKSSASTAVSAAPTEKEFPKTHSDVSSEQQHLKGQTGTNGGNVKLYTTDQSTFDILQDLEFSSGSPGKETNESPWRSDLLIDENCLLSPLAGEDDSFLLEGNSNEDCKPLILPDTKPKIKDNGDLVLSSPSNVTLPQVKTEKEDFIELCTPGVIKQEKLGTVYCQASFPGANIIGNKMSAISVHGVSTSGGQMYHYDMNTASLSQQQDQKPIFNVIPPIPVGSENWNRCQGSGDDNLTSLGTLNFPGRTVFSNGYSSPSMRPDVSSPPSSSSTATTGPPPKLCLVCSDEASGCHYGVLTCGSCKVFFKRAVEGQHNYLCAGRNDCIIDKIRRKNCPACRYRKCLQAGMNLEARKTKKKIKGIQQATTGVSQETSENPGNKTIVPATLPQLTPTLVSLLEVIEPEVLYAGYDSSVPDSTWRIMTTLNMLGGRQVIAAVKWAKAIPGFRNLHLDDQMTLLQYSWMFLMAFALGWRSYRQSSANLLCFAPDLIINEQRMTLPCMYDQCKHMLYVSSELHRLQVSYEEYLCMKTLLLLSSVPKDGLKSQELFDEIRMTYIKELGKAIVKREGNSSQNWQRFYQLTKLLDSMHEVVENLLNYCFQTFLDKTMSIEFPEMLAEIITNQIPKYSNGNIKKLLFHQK

[2] = Clearance in rat liver microsomes at 1 umol/L preincubated for 5 mins measured after 60 mins by UV analysis; assay type: ADME, Microsome
[3] = Bioavailability in Sprague-Dawley rat at 3 mg/kg, iv and 10 mg/kg, po; assay type: ADME, organism-based; conditions: in vivo
[4] = target: T3, Mineralocorticoid receptor
Description: Antagonist activity at human MR transfected in human COS1 cells after 1 day by luciferase reporter gene assay

IC50 (Androgen receptor) [nM]	IC50 (Progesterone receptor) [nM]	IC50 [1] [nM]	IC50 (Glucocorticoid receptor) [nM]	microsomal CLint at 1 µM [2] [µL/min/mg]	bioavailability [3] [%]	IC50 [4] [nM]	SMILES
> 10000	1600	2000	> 10000				O=C1COc2ccc(C3=Nn4cnnc4SC3)cc2N1
		4100					CCCC1Sc2nncn2N=C1c1ccc2c(c1)NC(=O)CO2 (configuration not stated)
		1300					O=C1COc2ccc(C3=Nn4cnnc4SC3Cc3ccccc3)cc2N1 (configuration not stated)
3600	> 10000		5600				O=C1COc2ccc(C3=Nn4cnnc4SC3c3ccccc3)cc2N1 (configuration not stated)
		> 10000					CC1(c2ccccc2)Sc2nncn2N=C1c1ccc2c(c1)NC(=O)CO2 (configuration not stated)
5900	> 10000	600	5500				O=C1COc2ccc(C3=Nn4cnnc4SC3c3ccccc3F)cc2N1 (configuration not stated)
4700	> 10000	310	> 10000				O=C1COc2ccc(C3=Nn4cnnc4SC3c3cccc(F)c3)cc2N1 (configuration not stated)
> 10000	> 10000	270	> 10000	60			O=C1COc2ccc(C3=Nn4cnnc4SC3c3ccc(F)cc3)cc2N1 (configuration not stated)
95	350	36	3500				O=C1COc2ccc(C3=Nn4ccnc4SC3c3ccccc3)cc2N1 (configuration not stated)
1200	1400	69	950				O=C1COc2ccc(C3=Nc4ccccc4SC3c3ccccc3)cc2N1 (configuration not stated)
		> 10000					Cc1nc(-c2ccc3c(c2)NC(=O)CO3)c(-c2ccccc2)s1
		> 10000					Cc1nc(-c2ccc3c(c2)NC(=O)CO3)c(-c2ccccc2)[nH]1
> 10000	> 10000	5300	> 10000				Cc1cc(-c2ccc3c(c2)NC(=O)CO3)n(-c2ccccc2)n1
> 10000	> 10000	1100	6900	164			Cc1cc(-c2ccc3c(c2)NC(=O)CO3)n(-c2ccc(F)cc2)n1
		960					CCc1cc(-c2ccc3c(c2)NC(=O)CO3)n(-c2ccc(F)cc2)n1
		260		24	28		O=C1COc2ccc(-c3cc(C(F)(F)F)nn3-c3ccc(F)cc3)cc2N1

IC50 (Androgen receptor) [nM]	IC50 (Progesterone receptor) [nM]	IC50 [1] [nM]	IC50 (Glucocorticoid receptor) [nM]	microsomal CLint at 1 µM [2] [µL/min/mg]	bioavailability [3] [%]	IC50 [4] [nM]	SMILES
		570					O=C1COc2ccc(-c3cc(C(F)(F)C(F)(F)F)nn3-c3ccc(F)cc3)cc2N1
		> 10000					CC(C)c1cc(-c2ccc3c(c2)NC(=O)CO3)n(-c2ccc(F)cc2)n1
		920					N#Cc1cc(-c2ccc3c(c2)NC(=O)CO3)n(-c2ccc(F)cc2)n1
		6800					O=C1COc2ccc(-c3cc(CO)nn3-c3ccc(F)cc3)cc2N1
		2700					O=C1COc2ccc(-c3c(C(F)(F)F)cnn3-c3ccc(F)cc3)cc2N1
		440					O=C1COc2ccc(-c3cc(C(F)(F)F)nn3-c3ccccc3F)cc2N1
		1100					O=C1COc2ccc(-c3cc(C(F)(F)F)nn3-c3cccc(F)c3)cc2N1
		430					O=C1COc2ccc(-c3cc(C(F)(F)F)nn3-c3ccccc3Cl)cc2N1
		320					O=C1COc2ccc(-c3cc(C(F)(F)F)nn3-c3ccc(Cl)cc3)cc2N1
> 10000	4900	80	2500			150	Cc1ccccc1-n1nc(C(F)(F)F)cc1-c1ccc2c(c1)NC(=O)CO2
		590					Cc1ccc(-n2nc(C(F)(F)F)cc2-c2ccc3c(c2)NC(=O)CO3)cc1
		700					CCc1ccccc1-n1nc(C(F)(F)F)cc1-c1ccc2c(c1)NC(=O)CO2
> 10000	1800	76	1700			85	Cc1cc(F)ccc1-n1nc(C(F)(F)F)cc1-c1cc(F)c2c(c1)NC(=O)CO2
4500	930	12	200			70	Cc1cc(F)ccc1-n1nc(C(F)(F)F)cc1-c1cc(Cl)c2c(c1)NC(=O)CO2
> 10000	2400	21	470			15	Cc1cc(F)ccc1-n1nc(C(F)(F)F)cc1-c1cc(C)c2c(c1)NC(=O)CO2
